Experimental data: patent EP4467141A1, “PYRAZOLO-QUINOLINES AS SELECTIVE INHIBITORS OF GENOTOXIC STRESS-INDUCED IKK/NF- KB PATHWAYS FOR CANCER THERAPY” (Max-Delbrück-Centrum für Molekulare Medizin in der …, priority 2023, dated 2024)

Columns and labels:
Test in all cases: Kinase panel study
Assay type in all cases: biochemical
Settings in all cases: read-out: Percentage of inhibition; for inhibition at 1 µM: 1000nM; for inhibition at 10 µM: 10000nM
GRK7 = biological target: T1, GRK7 (Homo sapiens, UniProt Q8WTQ7)
T1 construct: purchased Thermo Fisher Scientific
T1 sequence (Q8WTQ7 1-553): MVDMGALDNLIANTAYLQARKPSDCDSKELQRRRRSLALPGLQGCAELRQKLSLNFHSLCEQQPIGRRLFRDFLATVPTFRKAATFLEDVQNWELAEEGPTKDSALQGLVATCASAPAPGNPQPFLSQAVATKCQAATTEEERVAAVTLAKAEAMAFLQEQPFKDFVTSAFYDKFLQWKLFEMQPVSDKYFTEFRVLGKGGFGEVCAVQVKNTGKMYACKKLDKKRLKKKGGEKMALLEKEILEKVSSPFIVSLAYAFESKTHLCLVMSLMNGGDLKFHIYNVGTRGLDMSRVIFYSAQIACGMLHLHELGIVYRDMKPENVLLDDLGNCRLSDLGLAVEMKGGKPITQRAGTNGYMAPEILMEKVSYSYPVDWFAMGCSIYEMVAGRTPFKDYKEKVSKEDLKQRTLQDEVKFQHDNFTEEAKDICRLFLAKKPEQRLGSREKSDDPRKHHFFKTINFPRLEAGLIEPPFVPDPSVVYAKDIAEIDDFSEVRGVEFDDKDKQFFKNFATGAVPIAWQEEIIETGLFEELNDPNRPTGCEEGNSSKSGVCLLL
How it was run: (§1)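 Kinase inhibition was determined by a contract provider in cell-free ZLyte or Adapta assays. Results are expressed as % inhibition at 10 or 1 µM.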

KIT T670I = biological target: T2, KIT T670I (Homo sapiens, UniProt P10721, T670I)
T2 construct: purchased Thermo Fisher Scientific
How it was run: as §1

RPS6KB2 (p70S6Kb) = biological target: T3, RPS6KB2 (p70S6Kb) (Homo sapiens, UniProt Q9UBS0)
T3 construct: purchased Thermo Fisher Scientific
How it was run: as §1

SGK (SGK1) = biological target: T4, SGK (SGK1) (Homo sapiens, UniProt O00141)
T4 construct: purchased Thermo Fisher Scientific
T4 sequence (O00141 1-431): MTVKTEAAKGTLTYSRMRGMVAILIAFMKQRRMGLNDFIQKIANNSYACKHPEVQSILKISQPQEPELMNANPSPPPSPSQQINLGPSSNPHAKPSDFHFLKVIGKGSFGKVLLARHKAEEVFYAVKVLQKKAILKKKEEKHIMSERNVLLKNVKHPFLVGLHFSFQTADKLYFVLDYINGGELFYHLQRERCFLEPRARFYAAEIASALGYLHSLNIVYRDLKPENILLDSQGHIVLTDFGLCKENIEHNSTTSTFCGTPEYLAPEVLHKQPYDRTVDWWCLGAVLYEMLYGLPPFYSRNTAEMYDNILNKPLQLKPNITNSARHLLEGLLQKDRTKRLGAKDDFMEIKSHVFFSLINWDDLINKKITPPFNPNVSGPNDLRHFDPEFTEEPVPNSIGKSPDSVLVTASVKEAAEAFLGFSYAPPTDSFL
How it was run: as §1

LYN A = biological target: T5, LYN A (Homo sapiens, UniProt P07948)
T5 construct: purchased Thermo Fisher Scientific
How it was run: as §1

T3 sequence (Q9UBS0 whole entry): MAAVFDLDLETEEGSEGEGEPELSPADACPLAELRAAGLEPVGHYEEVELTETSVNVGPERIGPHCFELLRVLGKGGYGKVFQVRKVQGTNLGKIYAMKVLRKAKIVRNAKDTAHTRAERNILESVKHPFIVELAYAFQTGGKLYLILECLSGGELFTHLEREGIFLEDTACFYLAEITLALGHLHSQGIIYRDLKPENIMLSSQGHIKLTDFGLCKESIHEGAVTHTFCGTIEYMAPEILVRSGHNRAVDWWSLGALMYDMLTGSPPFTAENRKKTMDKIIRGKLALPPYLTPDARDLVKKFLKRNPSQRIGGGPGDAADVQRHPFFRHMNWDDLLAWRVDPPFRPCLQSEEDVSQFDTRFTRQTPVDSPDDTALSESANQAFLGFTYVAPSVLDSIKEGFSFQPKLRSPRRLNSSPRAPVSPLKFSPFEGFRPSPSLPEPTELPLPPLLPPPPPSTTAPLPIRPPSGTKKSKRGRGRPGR
T2 sequence (P10721 26-976 T670I): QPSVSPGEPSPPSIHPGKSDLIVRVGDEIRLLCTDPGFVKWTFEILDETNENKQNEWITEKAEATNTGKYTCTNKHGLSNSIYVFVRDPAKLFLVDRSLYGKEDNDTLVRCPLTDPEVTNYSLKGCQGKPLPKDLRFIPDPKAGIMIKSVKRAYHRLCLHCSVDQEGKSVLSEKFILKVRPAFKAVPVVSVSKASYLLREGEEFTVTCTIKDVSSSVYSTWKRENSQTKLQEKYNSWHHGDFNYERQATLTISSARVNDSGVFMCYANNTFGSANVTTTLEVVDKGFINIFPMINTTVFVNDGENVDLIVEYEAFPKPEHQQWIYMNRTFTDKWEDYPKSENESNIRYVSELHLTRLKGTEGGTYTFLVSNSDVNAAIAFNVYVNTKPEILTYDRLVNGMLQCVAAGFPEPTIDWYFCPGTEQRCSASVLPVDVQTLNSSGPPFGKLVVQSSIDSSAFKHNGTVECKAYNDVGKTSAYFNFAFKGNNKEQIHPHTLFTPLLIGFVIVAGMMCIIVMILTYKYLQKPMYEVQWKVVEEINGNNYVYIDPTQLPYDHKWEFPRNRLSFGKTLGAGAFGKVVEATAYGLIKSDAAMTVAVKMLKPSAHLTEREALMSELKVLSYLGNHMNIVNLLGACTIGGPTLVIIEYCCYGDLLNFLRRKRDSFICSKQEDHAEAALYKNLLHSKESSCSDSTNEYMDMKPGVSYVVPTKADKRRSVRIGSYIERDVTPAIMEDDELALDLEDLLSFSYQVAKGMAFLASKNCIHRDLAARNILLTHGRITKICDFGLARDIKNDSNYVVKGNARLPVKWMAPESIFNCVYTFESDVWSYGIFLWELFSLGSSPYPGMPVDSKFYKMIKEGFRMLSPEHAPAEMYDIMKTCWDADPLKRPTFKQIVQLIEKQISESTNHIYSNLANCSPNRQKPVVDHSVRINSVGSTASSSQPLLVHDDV
T5 sequence (P07948 whole entry): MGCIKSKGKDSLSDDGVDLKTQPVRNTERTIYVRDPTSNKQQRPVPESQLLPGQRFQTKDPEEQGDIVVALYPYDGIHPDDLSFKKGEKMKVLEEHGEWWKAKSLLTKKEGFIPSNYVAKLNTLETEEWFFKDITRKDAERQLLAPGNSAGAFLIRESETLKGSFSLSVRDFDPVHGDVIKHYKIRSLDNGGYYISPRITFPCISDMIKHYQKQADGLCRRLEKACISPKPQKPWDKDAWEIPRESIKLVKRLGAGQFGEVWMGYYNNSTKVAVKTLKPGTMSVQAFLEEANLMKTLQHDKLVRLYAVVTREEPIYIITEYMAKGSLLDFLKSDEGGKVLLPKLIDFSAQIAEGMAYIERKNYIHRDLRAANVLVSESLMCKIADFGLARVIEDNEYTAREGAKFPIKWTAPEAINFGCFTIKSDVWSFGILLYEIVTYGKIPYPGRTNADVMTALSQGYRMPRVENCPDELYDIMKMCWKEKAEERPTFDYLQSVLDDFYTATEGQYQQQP

SMILES	inhibition at 1 µM (GRK7)	inhibition at 10 µM (GRK7)	inhibition at 1 µM (KIT T670I)	inhibition at 10 µM (KIT T670I)	inhibition at 1 µM (RPS6KB2 (p70S6Kb))	inhibition at 10 µM (RPS6KB2 (p70S6Kb))	inhibition at 1 µM (SGK (SGK1))	inhibition at 10 µM (SGK (SGK1))	inhibition at 1 µM (LYN A)	inhibition at 10 µM (LYN A)
COc1ccc2c(c1OC)c(=O)n1c3ccc(O)cc3c3ccnc2c31 [MW01, 5-Hydroxy-10,11-dimethoxy-9H-benzo[c]indolo[3,2,1-ij][1,5]naphthyridin-9-one]	-2%	0%	1%	13%	7%	1%	-4%	15%	5%	18%
COc1ccc2cc3c(N)nn(C(=O)c4cccc(N(C)C)c4)c3nc2c1 [MW05, (3-Amino-7-methoxypyrazolo[3,4-b]quinolin-1-yl)-[3-(dimethylamino)phenyl]methanone]	-2%	5%	-1%	-13%	3%	15%	-2%	-12%	1%	-6%
